Measurements published in patent US7528205B2, “Photo radical generator, photo sensitive resin composition and article” (Dai Nippon Printing Co., Ltd., priority 2003, dated 2009).
Read-outs that look alike come from different tables or passages of the source.

What was measured:
[1] = Evaluation of heat resistance (thermogravimetry, 5% reduction in weight temperature); format: physicochemical; settings: for 5% heat decomposition temperature: temperature rise rate 10° C./min, nitrogen atmosphere
Description: Herein, the 5% reduction in weight temperature means a temperature at which the weight of a sample is reduced […] when a decrement of weight is measured using a thermogravimetric analyzer according to the same method as in the examples of the present invention as will be explained later. Similarly, the 10% reduction in weight temperature means a temperature at which the weight of a sample is reduced […].
Using a differential type differential thermal balance (product name: TG8120; manufactured by Rigaku Corporation), the 5% reduction in weight temperature of each of the compounds 1 to 15 was measured at a temperature rise rate of 10° C./min in a nitrogen atmosphere. As comparative examples, the comparative compounds 2 and 3 and a self-cleavage type photoradical generator Irgacure 907 (trademark; manufactured by Ciba Specialty Chemicals) were similarly measured.

[2] = Evaluation 1 of curability (coating layer with trifunctional acrylate, UV exposure, no hydrogen donor); settings: for Reaction rate (decrement of double bond): nitrogen; for Compatibility with M305: imide part/double bond 1/50
Description: (§1) Using a trifunctional acrylate (product name; M-305, manufactured by Toagosei Co., Ltd.) as polyfunctional monomers, the compounds 1 to 14, the comparative compounds 2 and 3 and a photoradical generator Irgacure 907 (product name; manufactured by Ciba Specialty Chemicals) were mixed with each polyfunctional monomer to prepare each THF solution of each photoradical generator.
(§2) The mixing was performed so that a ratio of the photoradical generator to the polyfunctional monomer is such that number of imide part of each of the compounds 1 to 14 and the comparative compounds 2 and 3 with respect to number of double bond of the polyfunctional monomer is 1/50 (number of imide part/number of polyfunctional monomer) or, in the case of Irgacure, number of the molecule with respect to number of double bond of the polyfunctional monomer is 1/50 (number of Irgacure 907/number of polyfunctional monomer).
(§3) Each solution was applied by spin coating to a glass substrate on which chromium was sputtered to obtain coating layers. Also, a layer without initiator component or comparative compounds and only containing trifunctional acrylate was formed as a blank.
(§4) A decrement of the peak at 810 cm^−1 was recorded with time by using an infrared spectrometer (product name: FTS6000; manufactured by BIO RAD) while exposing the above coating layer to ultraviolet rays, to confirm the degree of the disappearance of a double bond. The atmosphere around the sample during measurement was replaced with nitrogen. As the UV exposure apparatus, UV Spot Cure SP-III type (standard reflecting mirror type) manufactured by Ushio Inc. was used and as the UV lamp, USH-255BY (manufactured by Ushio Inc.) was used.

[3] = Evaluation 2 of curability (triethanolamine added as hydrogen donor)
Description: as §1, §2, §3, §4
In order to confirm whether or not the seven-membered ring imide structure-containing group was a hydrogen-drawing type radical generator, triethanolamine was added to THF solutions containing each of the compositions 1 to 14 used in the aforementioned Evaluation 1 of curability and trifunctional acrylate M305, coating layers were formed in the same manner as in the aforementioned Evaluation 1 of curability, and evaluated similarly. As comparative examples, each of the comparative compounds 1 and 3 was used.

Solubility test = format: physicochemical; settings: for solubility at 3 h: organic solvent or mixture, thermodynamic from solid
Description: As for the compound 1 and the comparative compound 3, a solubility test was performed respectively. Each sample was added to each solvent or monomer so as to be 0.5 mol/L at 20° C. After radiating ultrasonic wave for 3 hours, one with a precipitate was concluded as “0” and one without a precipitate was concluded as “x”.

[4] = Evaluation of transparency (transmittance of cured coating layer); format: physicochemical
Description: Using a trifunctional acrylate (product name; M305, manufactured by Toagosei Co., Ltd.) as polyfunctional monomers, each of the compound 1, a combination of the compound 1 and triethanolamine of the same number of mol and a photoradical generator Irgacure 907 (Irg907) were mixed to prepare each THF solution in the same ratio as the Evaluation of curability. Each solution was applied by spin coating to a glass substrate and heated on a 50° C. hot plate for one minute. Then, the substrate was exposed to light from a high pressure mercury lamp at an intensity of 2,000 mJ/cm^2 based on h-rays by using a hand-operated exposure apparatus (MA-1200, manufactured by Dainippon Screen Mfg. Co., Ltd.), to obtain a coating layer having a thickness of 4.2±0.05 μm. The transmittance of each coating layer was measured by a spectrometer (UV-2550 (PC)S GLP; manufactured by Shimadzu Corporation).

[5] = Evaluation of ultraviolet absorption; format: physicochemical; settings: for ultraviolet absorption bottom edge / ultraviolet absorption maximum wavelength: acetonitrile solution, 1.0×10^−5 mol/L
Description: Using an acetonitrile solution containing 1.0×10^−5 mol/L of each of the compounds 1 and 15, each ultraviolet absorption spectrum was measured.

[6] = 0.5 mol/L at 20° C., ultrasonic wave 3 hours

| 5% heat decomposition temperature [1] [°C] | Compatibility with M305 [2] | Compatibility with M305 [3] | Solubility in Acetone (Solubility test; [6]) | Solubility in Chloroform (Solubility test; [6]) | Solubility in Dimethylformamide (Solubility test; [6]) | Solubility in Tetrahydrofuran (Solubility test; [6]) | SMILES | Reaction rate (decrement of double bond) ([2]; Exposure 50 mJ) [%] | Reaction rate (decrement of double bond) ([2]; Exposure 100 mJ) [%] | Reaction rate (decrement of double bond) ([2]; Exposure 400 mJ) [%] | Reaction rate (decrement of double bond) ([3]; Exposure 50 mJ) [%] | Reaction rate (decrement of double bond) ([3]; Exposure 100 mJ) [%] | Reaction rate (decrement of double bond) ([3]; Exposure 400 mJ) [%] | ultraviolet absorption bottom edge [5] | ultraviolet absorption maximum wavelength [5] | also measured |
| --- | --- | --- | --- | --- | --- | --- | --- | --- | --- | --- | --- | --- | --- | --- | --- | --- |
| 224 | ∘ | ∘ | ∘ | ∘ | ∘ | ∘ | COCCn1c(=O)c2ccccc2c2ccccc2c1=O [Compound 1] | 0.3 | 0.5 | 1.1 | 17.3 | 23.6 | 36.6 | about 320 nm | about 240 nm | solubility, comparison in words (Solubility test): superior in solubility to the comparative compound 3; Solubility in Ethyl acetate (Solubility test; [6]): ∘; Solubility in Ethyl lactate (Solubility test; [6]): ∘; Solubility in Methyl acrylate (Solubility test; [6]): ∘; Solubility in Pentaerythritol triacrylate (M305) (Solubility test; [6]): ∘; Solubility in Propylene glycol monoethyl ether acetate (Solubility test; [6]): ∘; transmittance of cured layer ([4]; M305 coating layer 4.2±0.05 μm, 2,000 mJ/cm^2, compared to Irg907): high in transmittance with respect to the light of 410 nm or less; transmittance of cured layer ([4]; triethanolamine of the same number of mol added, M305 coating layer 4.2±0.05 μm): almost same in transmittance as in the case of only the compound 1 |
| 229 | ∘ | ∘ | ∘ | ∘ | ∘ | ∘ | COCCN1C(=O)c2cccc3cccc(c23)C1=O [compound 3, reference compound] | 1.0 | 2.5 | 26.6 | 3.3 | 5.4 | 11.1 |  |  | solubility at 3 h (Solubility test; ethyl acetate, 0.5 mol/L at 20° C., ultrasonic wave 3 hours, read-out: Solubility in Ethyl acetate): < 500 mM; solubility at 3 h (Solubility test; ethyl lactate, 0.5 mol/L at 20° C., ultrasonic wave 3 hours, read-out: Solubility in Ethyl lactate): < 500 mM; solubility at 3 h (Solubility test; methyl acrylate, 0.5 mol/L at 20° C., ultrasonic wave 3 hours, read-out: Solubility in Methyl acrylate): < 500 mM; solubility at 3 h (Solubility test; pentaerythritol triacrylate (M305), 0.5 mol/L at 20° C., ultrasonic wave 3 hours, read-out: Solubility in Pentaerythritol triacrylate (M305)): < 500 mM; solubility at 3 h (Solubility test; propylene glycol monoethyl ether acetate, 0.5 mol/L at 20° C., ultrasonic wave 3 hours, read-out: Solubility in Propylene glycol monoethyl ether acetate): < 500 mM |

| SMILES | 5% heat decomposition temperature [1] [°C] | Compatibility with M305 [2] | Compatibility with M305 [3] | Solubility in Acetone (Solubility test; [6]) | Solubility in Chloroform (Solubility test; [6]) | Solubility in Dimethylformamide (Solubility test; [6]) | Solubility in Tetrahydrofuran (Solubility test; [6]) | Reaction rate (decrement of double bond) ([2]; Exposure 50 mJ) [%] | Reaction rate (decrement of double bond) ([2]; Exposure 100 mJ) [%] | Reaction rate (decrement of double bond) ([2]; Exposure 400 mJ) [%] | Reaction rate (decrement of double bond) ([3]; Exposure 50 mJ) [%] | Reaction rate (decrement of double bond) ([3]; Exposure 100 mJ) [%] | Reaction rate (decrement of double bond) ([3]; Exposure 400 mJ) [%] | ultraviolet absorption bottom edge [5] | ultraviolet absorption maximum wavelength [5] | also measured |
| --- | --- | --- | --- | --- | --- | --- | --- | --- | --- | --- | --- | --- | --- | --- | --- | --- |
| COCCn1c(=O)c2cc([N+](=O)[O-])ccc2c2ccc([N+](=O)[O-])cc2c1=O [Compound 15] | 280 |  |  |  |  |  |  |  |  |  |  |  |  | about 320 nm | about 240 nm | improvement of heat decomposition temperature in comparison with the compound 1 [1]: ≥ 50 °C; absorption at 365 nm (emitting wavelength of high pressure mercury lamp) [5]: has absorption at a wavelength of 365 nm |
